The values that follow come from publication PMC11188089, “Structural basis for antibiotic transport and inhibition in PepT2, the mammalian proton-coupled peptide transporter” (Research Square, 2024).

The target of assay [1] is T1, PepT2 (Rattus norvegicus, UniProt Q63424).
T1 sequence (Q63424 1-729): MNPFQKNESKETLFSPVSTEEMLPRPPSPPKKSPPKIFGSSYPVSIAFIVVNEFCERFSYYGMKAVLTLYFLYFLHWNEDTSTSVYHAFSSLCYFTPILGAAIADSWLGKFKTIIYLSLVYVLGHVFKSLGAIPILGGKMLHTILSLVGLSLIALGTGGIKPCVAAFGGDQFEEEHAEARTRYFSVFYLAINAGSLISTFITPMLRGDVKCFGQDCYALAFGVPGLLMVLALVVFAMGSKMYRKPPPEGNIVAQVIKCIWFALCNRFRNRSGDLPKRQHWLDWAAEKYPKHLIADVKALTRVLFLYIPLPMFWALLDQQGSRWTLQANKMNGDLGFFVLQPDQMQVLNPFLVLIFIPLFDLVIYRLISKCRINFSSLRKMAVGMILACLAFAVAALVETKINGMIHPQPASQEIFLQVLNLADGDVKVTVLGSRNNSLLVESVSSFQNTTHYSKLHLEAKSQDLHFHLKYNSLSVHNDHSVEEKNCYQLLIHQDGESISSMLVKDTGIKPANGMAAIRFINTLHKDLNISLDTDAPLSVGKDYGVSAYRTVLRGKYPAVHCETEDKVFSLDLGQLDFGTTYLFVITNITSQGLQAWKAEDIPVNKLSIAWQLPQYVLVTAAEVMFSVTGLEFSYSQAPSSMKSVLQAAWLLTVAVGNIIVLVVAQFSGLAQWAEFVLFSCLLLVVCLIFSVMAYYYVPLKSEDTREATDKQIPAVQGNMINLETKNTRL
Further details: gene Slc15a2.

For assay [2], the target named is T1, PepT2. Description: inhibition of ^3H di-alanine uptake in PepT2 proteoliposomes; counterflow; SSM electrophysiology. The assay is classed as biochemical. Further details: gene Slc15a2; purified rat PepT2 reconstituted into liposomes.
The target of assay [3] is Rattus norvegicus PepT2 (SLC15A2), proton-coupled peptide transporter (Rattus norvegicus) (UniProt Q63424).
The target of assay [4] is T2, Rattus norvegicus PepT2 (SLC15A2), proton-coupled peptide transporter (Rattus norvegicus, UniProt Q63424).
T2 construct: PepT2 (SLC15A2) from Rattus norvegicus; The extracellular domain (ECD) was in the protein but was not built in the deposited models; For the IC50 assay the same purified protein was reconstituted into POPE:POPG liposomes; The Addgene ids 167988 and 167989 are assigned to PepT2 and the nanobody by the order in the sentence; also called rat PepT2; RnPepT2; not shown: GFP, C-terminal, cleaved; His …
As to the kind of experiment: cryo-EM structure; PepT2 after SEC (5-6 mg/ml, DDM:CHS) mixed with 1 mM antibiotic (cefadroxil, amoxicillin or cloxacillin) for one hour, then 1.2 molar excess of nanobody D8, on ice for at least 30 minutes. The settings on record: both partners purified.

Like-named read-outs stand apart in the source and are kept apart here. Where a SMILES comes first, the peptide text is derived from it.

The term IC50 denotes the concentration that inhibits the measured activity by half. Read a low IC50 as inhibition by little substance.

For the molecule `Nc1nc(/C(=C/CC(=O)O)C(=O)N[C@@H]2C(=O)N3C(C(=O)O)=CCS[C@H]23)cs1` [ceftibuten], at PepT2 [1], the IC50 is 1000 µM.

At PepT2 [2], `C[C@H](N)C(=O)N[C@@H](C)C(=O)O` [di-alanine] (H-Ala-Ala-OH) displayed a concentration for half-maximal inhibition (IC50) of 32 µM.

Regarding di-alanine peptide, in assay [3], the IC50 for inhibition of the uptake of radioactive (3H) di-alanine into rat PepT2 proteoliposomes amounted to 32 µM.

B1: nanobody D8 (inhibitory nanobody against rat PepT2) (VHH)
VHH: QVQLVESGGGLVQPGGSLRLLCVASGRPFNDYDMGWFRQAPGKEREFVASISWSGRVTDYSDSMKGRCTVSRDNAKGTMFLQMSNLVPRDTAVYYCAAARRRWTFKATNTEEFYETWGQGTQVTVSS
notes: the nanobody was resolved in the structures solved here (PDB 9BIR, 9BIS, 9BIT, 9BIU); expression plasmid in Addgene; also called the nanobody
Take B1: in assay [4], the binding result is given as “binds”.
